Source: the supplement of paper PMC5908809

What was measured:
[1] = system: normal NK cells expanded with K562-aAPC; assay: percent inhibition of viability; higher = more inhibition; details: 72 h, IL-2 2.5 ng/mL
Method: (§1)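 Drug sensitivity and resistance testing on K562-aAPC-expanded normal NK cells: 5 concentrations (10-fold steps over a 10,000-fold range), 72 h at 37 °C, viability by CellTiter-Glo normalised to DMSO and benzethonium chloride controls; DSS from the fitted curve.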

[2] = system: DERL-7 (IL-2 2.5 ng/mL); assay: as above; details: 72 h
[3] = system: IMC-1 (IL-2 20 ng/mL); assay: as above; details: 72 h
[4] = system: KAI3 (IL-2 2.5 ng/mL); assay: as above; details: 72 h
[5] = system: KHYG-1 (IL-2 2.5 ng/mL); assay: as above; details: 72 h
[6] = system: NK-92 (IL-2 2.5 ng/mL); assay: as above; details: 72 h
[7] = system: NK-YS (IL-2 2.5 ng/mL); assay: as above; details: 72 h
[8] = system: NKL (IL-2 2.5 ng/mL); assay: as above; details: 72 h
[9] = system: SNK-6 (IL-2 2.5 ng/mL); assay: as above; details: 72 h
[10] = system: YT (IL-2 2.5 ng/mL); assay: as above; details: 72 h
[11] = system: normal primary NK cells, pool 1 (3 donors) (IL-2 2.5 ng/mL); assay: as above; details: 72 h
[12] = system: normal primary NK cells, pool 1 (3 donors), resting (IL-2 0 ng/mL); assay: as above; details: 72 h
[13] = system: normal primary NK cells, pool 2 (3 donors) (IL-2 2.5 ng/mL); assay: as above; details: 72 h
[14] = system: normal primary NK cells, pool 3 (3 donors) (IL-2 2.5 ng/mL); assay: as above; details: 72 h
[15] = system: normal NK cells expanded with K562-aAPC; assay: drug sensitivity score (DSS) (DSS units); higher = more sensitive; extreme values may be limits of the assay; details: 72 h; IL-2 2.5 ng/mL
Method: as §1

[16] = system: DERL-7 (IL-2 2.5 ng/mL); assay: as above; details: 72 h
[17] = system: IMC-1 (IL-2 20 ng/mL); assay: as above; details: 72 h
[18] = system: KAI3 (IL-2 2.5 ng/mL); assay: as above; details: 72 h
[19] = system: KHYG-1 (IL-2 2.5 ng/mL); assay: as above; details: 72 h
[20] = system: NK-92 (IL-2 2.5 ng/mL); assay: as above; details: 72 h
[21] = system: NK-YS (IL-2 2.5 ng/mL); assay: as above; details: 72 h
[22] = system: NKL (IL-2 2.5 ng/mL); assay: as above; details: 72 h
[23] = system: SNK-6 (IL-2 2.5 ng/mL); assay: as above; details: 72 h
[24] = system: YT (IL-2 2.5 ng/mL); assay: as above; details: 72 h
[25] = system: normal primary NK cells, pool 1 (3 donors) (IL-2 2.5 ng/mL); assay: as above; details: 72 h
[26] = system: normal primary NK cells, pool 1 (3 donors), resting (IL-2 0 ng/mL); assay: as above; details: 72 h
[27] = system: normal primary NK cells, pool 2 (3 donors) (IL-2 2.5 ng/mL); assay: as above; details: 72 h
[28] = system: normal primary NK cells, pool 3 (3 donors) (IL-2 2.5 ng/mL); assay: as above; details: 72 h

O=C(Nc1ccc2[nH]nc(-c3ccncc3)c2c1)[C@@H]1CCN(CC(=O)N2CCN(c3ccc(-c4ncccn4)cc3)CC2)C1 (max concentration tested 10000 nM)
percent inhibition of viability [%]
Details	1 nM	10 nM	100 nM	1000 nM	10000 nM
[1]	2.7	-4.22	-5.95	2.93	20.3
[2]	-1.39	5.53	18	42.9	66.6
[3]	-5.11	-10.7	-8.77	-10.1	-4.64
[4]	-4.48	5.51	14.6	21	46.9
[5]	-2.48	-2.2	5.59	45.6	78.9
[6]	-6.06	-9.07	-16.6	-32.5	12.5
[7]	-4.51	-0.3	-0.1	9.9	40.6
[8]	-19.4	-14.6	3.59	55.7	71.8
[9]	-4.99	4.31	5.1	-34.4	15.8
[10]	-0.05	-0.51	-3.3	9.81	22.2
[11]	-5.21	-6.91	-5.12	11.2	47.8
[12]	4.46	-7.38	-1.31	12.8	58.7
[13]	-6.14	-5.45	0.32	5.74	15.6
[14]	-13.2	-18.2	-22.8	-10.8	20

Details	drug sensitivity score
[15]	1.01
[16]	10.3
[17]	0
[18]	5.52
[19]	9.89
[20]	0.01
[21]	3.58
[22]	10.9
[23]	0.08
[24]	1.87
[25]	4.28
[26]	5.24
[27]	0.76
[28]	0.32

CCn1c(-c2nonc2N)nc2cnc(Oc3cccc(NC(=O)c4ccc(OCCN5CCOCC5)cc4)c3)cc21 (max concentration tested 10000 nM)
percent inhibition of viability [%]
Details	1 nM	10 nM	100 nM	1000 nM	10000 nM
[1]	7.28	-0.78	-0.39	9.1	43.7
[2]	1.35	15.3	42.9	62.8	72.7
[3]	-0.83	-2.25	6.95	14.1	26.8
[4]	-3.04	-8.72	11.1	37.2	95
[5]	1.19	3.45	16.6	24.8	68.2
[6]	-3.47	11.4	34.4	37.1	74
[7]	-0.26	-0.53	30.8	48.4	41.9
[8]	-13.6	-19.1	-8.42	24	52.5
[9]	-9.46	8.6	49.6	70.1	55.5
[10]	1.84	-0.78	1.36	15.7	28.5
[11]	-7.22	2.09	6.8	18.7	70
[12]	-4.42	-15.8	7.47	11.9	54.7
[13]	-8.71	-2.3	9.01	9.21	60.8
[14]	-9.45	-1.75	4.61	14.9	64.5

Details	drug sensitivity score
[15]	3.71
[16]	18.2
[17]	2.4
[18]	9.52
[19]	6.96
[20]	12.4
[21]	12.6
[22]	5.93
[23]	19.4
[24]	2.8
[25]	6.54
[26]	4.87
[27]	4.86
[28]	5.91

O=C(O)CC1CC(c2ccccc2)=NO1 (stereo unspecified) [VGX-1027] (max concentration tested 10000 nM)
percent inhibition of viability [%]
Details	1 nM	10 nM	100 nM	1000 nM	10000 nM
[1]	-7.12	-7.03	0.76	6.38	14.7
[2]	0.25	-1.69	-4.26	-3.18	-6.46
[3]	0.5	0.17	6.38	5.66	15.5
[4]	-6.5	-1.11	1.3	12.6	35.1
[5]	0.61	-5.96	-1.03	3.73	20
[6]	-3.95	-4.08	-2.12	11.7	26.6
[7]	-1.78	-5.47	0.49	4.16	16.7
[8]	-7.13	-10.2	1.01	15.5	23.6
[9]	-0.72	-26.7	-22.3	-7.03	3.07
[10]	-2.93	-7	-1.39	5.41	20.1
[11]	-3.12	16.9	11.2	17.1	11.4
[12]	3.76	20.2	15.6	10.9	5.12
[13]	-4.95	7.51	2.82	7.55	7.46
[14]	-13.4	4.04	5.21	2.93	6.93

Details	drug sensitivity score
[15]	0.56
[16]	0
[17]	0.28
[18]	3.28
[19]	1.09
[20]	2.51
[21]	0.79
[22]	2.41
[23]	0
[24]	1.27
[25]	4.99
[26]	0
[27]	0
[28]	0

CN(c1ccccc1CNc1nc(Nc2ccc3c(c2)CC(=O)N3)ncc1C(F)(F)F)S(C)(=O)=O (max concentration tested 10000 nM)
percent inhibition of viability [%]
Details	1 nM	10 nM	100 nM	1000 nM	10000 nM
[1]	-7.88	-4.41	-2.88	58	101
[2]	-11.5	1.19	-8.22	78.2	101
[3]	-8.05	-9.43	-5.71	42.5	100
[4]	2.15	-4.73	-2.81	30.6	106
[5]	3.44	-1.15	1.69	81.4	109
[6]	-16.5	-24	-36	20.4	108
[7]	-1.08	-5.55	-3.8	48.1	106
[8]	-5.61	-8.98	4.68	65.6	109
[9]	-0.86	-15.1	-15.1	15.3	64.4
[10]	0.31	-4.2	-5.3	27.2	109
[11]	4.57	-5.98	14.5	42.7	99.6
[12]	-21.8	-18.3	-4.27	-35.7	91.4
[13]	-24.5	-16.5	-8.34	20.1	98.1
[14]	-4.56	-2.11	-3.97	15.6	100

Details	drug sensitivity score
[15]	12.4
[16]	14.4
[17]	11.1
[18]	9.97
[19]	14.9
[20]	8.85
[21]	11.6
[22]	13.3
[23]	5.93
[24]	9.64
[25]	10.5
[26]	3.72
[27]	8.64
[28]	8.12
